Values of other authors, collected in patent US20060035881A1, “Use of targeted oxidative therapeutic formulation in endodontic treatment” (priority 2004, published 2006).

Legend:
[1] = system: peroxide-sensitive E. coli; details: infused into the blood of rabbits infected with peroxide-sensitive E. coli
E. coli = details: increasing concentration of peroxide in rabbit or human blood containing E. coli

OO [hydrogen peroxide, Hydrogen peroxide]
bactericidal effect in vivo [1]: no bactericidal effect
direct bactericidal activity ex vivo (E. coli): no evidence of direct bactericidal activity
